Results from patent publication US7244712B2, “Aminoglycoside antibiotics and methods of using same” (priority 2004, dated 2007).
Converted amounts (≈) assume the structure as drawn.

What was measured:
[1] = target: 70S ribosome; assay: Fluorescence anisotropy binding to 70S ribosomes; conditions: competition with CRP, E. coli ribosomes; read-out: Dissociation constant (KD) with 70S ribosome
Procedure: After establishing the lack of stereospecificity in the binding of aminoglycosides to the A-site RNA constructs (FIG. 9A-C) where the binding affinity, KD, is about 0.1 μM to about 100 μM, the stereospecificity of aminoglycoside binding to intact ribosomes was determined. Both yeast and E. coli ribosomes were prepared and aminoglycoside binding was measured using fluorescence anisotropy methods. For example, fluorescence anisotropy methods recited in Wang, Y., and Rando, R. R. Chem. Biol. (1995) 2, 281-290; and Wang, Y., Hamasaki, K., and Rando, R. R. Biochemistry (1997) 36,768-779. CRP was used as the binding probe. […] Binding data reported herein for aminoglycoside compounds with eukaryotic yeast ribosomes are similar to binding data for said aminoglycoside compounds with ribosoimes in bacteria and with eukaryotic A-site rRNA constructs.
5-Carboxytetramethylrhodamine-labeled paromomycin (CRP) and tobramycin (CRT) concentrations were determined spectroscopically at 550 nm using a molar extinction coefficient of 6.00×10 4 M −1 cm −1. Fluorescence anisotropy measurements were performed on a Perkin-Elmer LS-50B luminescence spectrometer equipped with a thermostat accurate to ±0.1° C. as indicated previously (Wang, Y., Hamasaki, K., & Rando, R. R. (1997) Biochemistry 36, 768-779). The tracer solution was excited at 550 nm and monitored at 580 nm. The integration time was 5 s. For every point, 6 measurements were taken, and their average values were used for calculation. Measurements were carried out in a buffer solution containing 150 mM NaCl, 5 mM KCl, 1 mM CaCl2, 1 mM MgCl2, and 20 mM HEPES (pH 7.5). Prior to measurements, RNA constructs were renatured by incubating in binding buffer {150 mM NaCl, 5 mM KCl, 1 mM CaCl2, 1 mM MgCl2, and 20 mM HEPES (pH 7.5)} for 3 minutes at 90° C. followed by slow cooling to 25° C.
Equation 1 was used for the determination of the dissociation constant (Kd) for the interactions between RNA or ribosome and CRP. A=A0+DA{(RNA)0+(CRP)0+Kd−({(RNA)0+(CRP)0+Kd}^2−4(RNA)0(CRP)0)½}/2 where A and A0 are the fluorescence anisotropy of CRP in the presence and absence of RNA, respectively, and DA is the difference between the fluorescence anisotropy of CRP in the presence of an extrapolated infinite concentration of RNA minus the fluorescence anisotropy in the absence of RNA. (RNA)0 and (CRP)0 are the initial concentrations of RNA and CRP, respectively.
Equation 2 is used for the calculation of the KD values in the competition binding assay. (aminoglycoside)0={KD(A−−A)/Kd(A−A0)+1}{(RNA)0−Kd(A−A0)/(A−−A)−(CRP)0(A−A0)/(A−−A)} where KD is the dissociation constant between the RNA and the aminoglycosides; (aminoglycoside)0 is the initial concentration of the aminoglycosides; AL is anisotropy of completely bound tracer. Both Kd and KD were determined by non-linear curve fitting using the equations described above, and are presented as mean values of three independent measurements.
The purification of E. coli (E600) 70S ribosomes was carried out according to the published procedure (Lazaro, E., van den Broek, L. A. G. M., Felix, A. S., Ottenheijm, H. C. J., Ballesta, J. P. G. (1991) Biochemistry 30, 9642-9648). E. coli MRE600 were grown for 12 h in 6L of LB medium (10 g trypton, 5 g yeast extract, 5 g NaCl per 1 L, pH 7.0) at 37° C. Crude ribosomes were precipitated from clarified supernatant by 4 h centrifugation at 25,000 rpm in Beckman SW 28 rotor at 4° C. The ribosome pellets were collected in 5 mL of buffer BR1, containing 10 mM HEPES, pH 7.5, 500 mM ammonium acetate, 100 mM magnesium chloride and 2.5 mM DTT. The ribosome suspension was centrifuged for 20 min at 15000 rpm to be clarified. The clarified sample was loaded over two layers of 20% and 40% sucrose in buffer BR1 and centrifuged for 18 hr at 19000 rpm in Beckman SW28 rotor at 4° C. […]

[2] = tested on: E. coli (ATCC 25922); assay: Antibiotic activity disk assay, wild type E. coli; assay type: cell-based; conditions: FIG. 7A
Procedure: (§1) E. coli (ATCC 25922) and P. aeruginosa (ATCC 27853) (BD Bioscience) were inoculated in 3 mL of the medium 2 (U.S. Pharmacopia), containing 6 g peptone, 3 g yeast extract and 1.5 g beef extract per 1 L, pH 6.6, and were grown in a shaker for 6 h at 37° C. until an OD 560=0.6-0.8 was reached.
For the antibiotic disk assay, […] of each bacterial inoculum was mixed with 10 mL of melted agar (1.5% medium 2 agar, BD Bioscience) at 50-55° C. and poured onto 100 mm Petri dishes. Sterile Whatmann 3 MM 5 mm paper disks were soaked with antibiotic solutions and allowed to dry. The disks were positioned evenly on the surface of bacterial-inoculated solid agar and the plates were incubated at 37° C. for 1-2 days. MIC and bactericide index measurements.

[3] = tested on: E. coli (ATCC 25922); assay: MIC, wild type E. coli; assay type: cell-based; conditions: growth inhibition greater than 90%
Procedure: (§2) Minimal inhibitory concentrations (MIC) were measured according to the published method (Greenberg, W. A., Priestley, E. S., Sears, P. S., Alper, P. B., Rosenbohm, C., Hendrix, M., Hung, S.-C., & Wong, C.-H. (1999) J. Am. Chem. Soc. 121, 6527-6541). E. coli (ATCC 25922) (both wild type and pMM-transformed) and P. aeruginosa (ATCC 27853) were grown in medium 2 to an optical density OD 600 of 0.6-0.8. The inoculi were diluted to OD 600 ˜0.1 in medium 2 and 1 mL of the culture was placed in 13 mL test tubes. The desired concentrations of antibiotic were added from stock solutions. […] The absorbance at 600 nm of each sample was read and MIC was taken as the lowest antibiotic concentration inhibiting bacterial growth by greater than 90%.

[4] = tested on: E. coli (ATCC 25922) transformed with pMM plasmid bearing APH(3')IIa; assay: MIC, kanamycin/neomycin resistant E. coli; assay type: cell-based; conditions: growth inhibition greater than 90%
Procedure: as §1, §2

[5] = tested on: E. coli S30 extract, containing 70S ribosomes; assay: In vitro protein translation (CAT mRNA, 35S methionine incorporation); assay type: biochemical; conditions: quantitation of gel bands, read-out: IC50, concentration producing 50% inhibition of translation
Procedure: Protein translation was performed from chloramphenicol acetyl transferase (CAT) mRNA. […] A commercial E. coli ribosomal suspension was supplemented with an E. coli extract containing the required elements for translation. These include translation factors, tRNAs, and aminoacyl tRNA synthases. Plasmid, T7 RNA polymerase and amino acids were added to the reaction mixture, and both transcription and translation steps were performed in the same vial. The effects of the aminoglycosides on the translation process were evaluated by measuring the incorporation of ^35S methionine in the translated chloramphenicol acetyl transferase protein.
In vitro translation was performed by using PROTEINscript™-PRO (Ambion) kit. […] Reaction mixtures contained appropriate concentrations of antibiotic (neomycin B, D- and L-neamine). The protein was translated from CAT mRNA, transcribed from control DNA template containing CAT gene under control of the T7 promotor. The product, ˜25 kDa chloramphenicol acetyl transferase, was labeled during translation with 1 μCi ^35S methionine (New England Nuclear) per reaction (no cold methionine was added).
Following the translation, the samples were analyzed by electrophoresis on 4-20% SDS mini-gels (Invitrogen) for 1.5 h at 120V. Gels were fixed with 40% methanol/10% acetic acid and exposed to Molecular Dynamics phosphoimager plates, which were read on a Personal FX phosphoimager (Bio-Rad) and quantitated using QuantityOne™ software.

## NCC1OC(OC2C(N)CC(N)C(O)C2O)C(N)C(O)C1O [L-Neamine]
[1]
  Kd: 2.69 ± 0.46 µM
[2]
  Antibiotic activity in disk assay, WT E. coli: somewhat lower activity
[3]
  Minimal inhibitory concentration (MIC), E. coli: 1300 µM (≈ 419 µg/mL)
[4]
  Minimal inhibitory concentration (MIC), E. coli kan/neo resistant: 2100 µM (≈ 677 µg/mL)
[5]
  IC50: 195 µM
